Values quoted from earlier work, collected in patent publication US7547545B2, “Directed in vitro differentiation of marrow stromal cells into neural cell progenitors” (priority 2001, dated 2009).

What was measured:
prostate tumor cells = details: Cox et al. 1999
[1] = tested on: medulloblastoma cell line, MCD-1; details: MCD-1 cells, Moore et al. 1996
C6 glioma cells = details: Sharma et al. 1987 and Ghosh et al. 1997

CCCC(=O)Nc1ncnc2c1ncn2[C@@H]1O[C@@H]2COP(=O)(O)O[C@H]2[C@H]1OC(=O)CCC [dbcAMP, dibutyryl cyclic AMP]
neuroendocrine characteristics (prostate tumor cells): induce prostate tumor cells to assume many of the characteristics of neuroendocrine cells | extension of processes [1]: greatly increase the extension of processes | neural differentiation (C6 glioma cells): induced neural differentiation

CNC[C@H](O)c1ccc(O)c(O)c1 [epinephrine]
neuroendocrine characteristics (prostate tumor cells): induce prostate tumor cells to assume many of the characteristics of neuroendocrine cells

CC(C)NCC(O)c1ccc(O)c(O)c1 (centres unmarked) [isoproterenol]
neuroendocrine characteristics (prostate tumor cells): induce prostate tumor cells to assume many of the characteristics of neuroendocrine cells
